Results: patent US12226424B2, “Target protein degradation compounds, their anti-tumor use, their intermediates and use of intermediates” (ShanghaiTech University, priority 2018, dated 2025)

Columns and labels:
[1] = target: BCR-ABL (Homo sapiens, UniProt P00519); test: Western-blot half-degradation concentration (DC50) / degradation of BCR-ABL in K562 cells; settings: read-out: DC50 (nM)/K562 cell line, BCR-ABL protein degradation, 24 hours, Western-blot
[2] = tested on: K562 cells (BCR-ABL positive); test: Half inhibitory concentration (IC50) on tumor cells, CCK-8, K562; settings: Homo sapiens, K562, 48 h, read-out: IC50 (nM)/K562 cell line
Method: Determination of Half Inhibitory Concentration (IC50) of PROTAD Compounds on Tumor Cells
K562 cells were seeded in 100 μL of RPMI1640 complete medium at a density of 20,000 cells/well. 100 μL of the inoculated cells were treated with 100 μL diluted PROTAD compound of the present disclosure to be tested at 9 successively decreasing concentrations (starting at the highest concentration of 10 μM; 3-fold serial dilutions). After the cells were treated with the tested drugs for 48 hours, the cell viability determination was performed in accordance with CCK-8 reagent operating instructions. The negative control was DMSO, and positive control was a commercial inhibitor. After CCK-8 treatment for 2 h, the value of O.D.450 was measured using a microplate reader.

[3] = target: T1, ALK protein (Homo sapiens, UniProt Q9UM73); test: Western-blot half degradation concentration (DC50) of ALK protein in SR cells; format: cell-based; settings: 24 h drug treatment; for DC50: read-out: DC50 (nM)/ SR cell line
Method: (§1) ALK-positive SR cells (human large cell immunoblastic lymphoma) were purchased from the American Type Culture Collection (ATCC); H3122 cells (human non-small cell lung cancer) were from the Shanghai University of Science and Technology Lin Haifan's research group.
(§2) The cells used in this present disclosure were cultured in a 37° C. incubator containing 5% CO2.
(§3) DC50 (drug concentration corresponding to protein degradation to 50%) calculation: according to the gray value of the corresponding Western blotting band after drug treatment, fitting the relationship curve between drug concentration and gray value to calculate the drug concentration range corresponding to half of the gray value.
Target sequence in this assay (Q9UM73 with tags, fused parts or gaps): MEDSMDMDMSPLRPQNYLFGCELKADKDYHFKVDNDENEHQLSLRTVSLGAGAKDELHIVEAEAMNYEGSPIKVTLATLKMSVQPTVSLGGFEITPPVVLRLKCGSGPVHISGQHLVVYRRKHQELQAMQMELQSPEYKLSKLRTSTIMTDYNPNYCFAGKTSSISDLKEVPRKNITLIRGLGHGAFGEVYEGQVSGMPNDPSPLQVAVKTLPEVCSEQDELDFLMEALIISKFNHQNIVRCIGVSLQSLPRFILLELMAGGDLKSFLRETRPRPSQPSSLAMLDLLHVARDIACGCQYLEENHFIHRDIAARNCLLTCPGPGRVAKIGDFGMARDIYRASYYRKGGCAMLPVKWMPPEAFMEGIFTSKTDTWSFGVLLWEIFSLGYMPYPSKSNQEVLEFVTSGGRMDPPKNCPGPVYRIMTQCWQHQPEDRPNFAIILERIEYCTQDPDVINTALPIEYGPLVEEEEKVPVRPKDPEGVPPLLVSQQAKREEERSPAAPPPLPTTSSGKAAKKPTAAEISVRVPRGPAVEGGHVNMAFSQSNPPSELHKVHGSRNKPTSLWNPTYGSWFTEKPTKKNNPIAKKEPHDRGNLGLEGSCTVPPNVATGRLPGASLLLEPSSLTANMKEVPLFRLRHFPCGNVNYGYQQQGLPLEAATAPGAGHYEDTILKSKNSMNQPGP

[4] = target: T1, ALK protein; test: Western-blot half degradation concentration (DC50) of ALK protein in H3122 cells; format: cell-based; settings: 24 h drug treatment, read-out: DC50 (nM)/ H3122 cell line
Method: as §1, §2, §3
Target sequence in this assay (Q9UM73 with tags, fused parts or gaps): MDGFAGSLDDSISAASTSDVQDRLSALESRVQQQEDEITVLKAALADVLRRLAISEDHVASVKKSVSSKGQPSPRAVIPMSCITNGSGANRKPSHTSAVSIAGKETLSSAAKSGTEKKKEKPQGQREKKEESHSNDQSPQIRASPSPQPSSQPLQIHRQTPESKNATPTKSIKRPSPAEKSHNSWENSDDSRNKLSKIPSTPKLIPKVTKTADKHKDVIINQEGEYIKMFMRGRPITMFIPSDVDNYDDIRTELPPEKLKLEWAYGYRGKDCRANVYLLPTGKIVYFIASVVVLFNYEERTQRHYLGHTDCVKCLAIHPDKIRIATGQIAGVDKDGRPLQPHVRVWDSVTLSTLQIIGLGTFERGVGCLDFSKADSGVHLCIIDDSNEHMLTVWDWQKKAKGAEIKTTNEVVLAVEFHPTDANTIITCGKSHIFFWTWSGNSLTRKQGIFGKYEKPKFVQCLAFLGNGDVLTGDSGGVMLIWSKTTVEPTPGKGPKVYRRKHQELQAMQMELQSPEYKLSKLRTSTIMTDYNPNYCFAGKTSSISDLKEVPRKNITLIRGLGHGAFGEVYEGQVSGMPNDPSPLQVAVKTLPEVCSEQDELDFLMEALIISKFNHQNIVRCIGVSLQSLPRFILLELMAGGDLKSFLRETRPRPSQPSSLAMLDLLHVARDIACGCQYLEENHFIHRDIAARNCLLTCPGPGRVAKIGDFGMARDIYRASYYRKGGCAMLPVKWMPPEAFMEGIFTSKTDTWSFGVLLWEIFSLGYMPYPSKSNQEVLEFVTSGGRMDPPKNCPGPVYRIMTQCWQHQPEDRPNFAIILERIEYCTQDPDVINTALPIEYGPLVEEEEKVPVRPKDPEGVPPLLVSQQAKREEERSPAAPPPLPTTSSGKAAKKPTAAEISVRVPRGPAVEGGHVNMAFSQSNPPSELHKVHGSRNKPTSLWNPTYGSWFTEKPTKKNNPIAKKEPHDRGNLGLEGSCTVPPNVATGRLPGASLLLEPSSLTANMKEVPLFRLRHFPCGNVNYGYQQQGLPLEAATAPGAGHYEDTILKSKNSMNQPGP

[5] = tested on: SR cells; test: Half inhibitory concentration (IC50) on ALK-positive SR cell proliferation (CCK-8); format: cell-based; settings: Homo sapiens; SR cells, 72 h drug treatment, CCK-8; read-out: IC50 (nM)/ SR cell line
Procedure, shortened: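 SR cells seeded at 10,000 cells/well in RPMI1640 and treated with PROTAD compounds at 10 concentrations (top 10 μM, 5-fold dilutions) for 72 h at 37° C, 5% CO2. Viability read by CCK-8 (2 h) at OD450; DMSO as negative control.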

Chain of BCR-ABL (P00519 with tags, fused parts or gaps): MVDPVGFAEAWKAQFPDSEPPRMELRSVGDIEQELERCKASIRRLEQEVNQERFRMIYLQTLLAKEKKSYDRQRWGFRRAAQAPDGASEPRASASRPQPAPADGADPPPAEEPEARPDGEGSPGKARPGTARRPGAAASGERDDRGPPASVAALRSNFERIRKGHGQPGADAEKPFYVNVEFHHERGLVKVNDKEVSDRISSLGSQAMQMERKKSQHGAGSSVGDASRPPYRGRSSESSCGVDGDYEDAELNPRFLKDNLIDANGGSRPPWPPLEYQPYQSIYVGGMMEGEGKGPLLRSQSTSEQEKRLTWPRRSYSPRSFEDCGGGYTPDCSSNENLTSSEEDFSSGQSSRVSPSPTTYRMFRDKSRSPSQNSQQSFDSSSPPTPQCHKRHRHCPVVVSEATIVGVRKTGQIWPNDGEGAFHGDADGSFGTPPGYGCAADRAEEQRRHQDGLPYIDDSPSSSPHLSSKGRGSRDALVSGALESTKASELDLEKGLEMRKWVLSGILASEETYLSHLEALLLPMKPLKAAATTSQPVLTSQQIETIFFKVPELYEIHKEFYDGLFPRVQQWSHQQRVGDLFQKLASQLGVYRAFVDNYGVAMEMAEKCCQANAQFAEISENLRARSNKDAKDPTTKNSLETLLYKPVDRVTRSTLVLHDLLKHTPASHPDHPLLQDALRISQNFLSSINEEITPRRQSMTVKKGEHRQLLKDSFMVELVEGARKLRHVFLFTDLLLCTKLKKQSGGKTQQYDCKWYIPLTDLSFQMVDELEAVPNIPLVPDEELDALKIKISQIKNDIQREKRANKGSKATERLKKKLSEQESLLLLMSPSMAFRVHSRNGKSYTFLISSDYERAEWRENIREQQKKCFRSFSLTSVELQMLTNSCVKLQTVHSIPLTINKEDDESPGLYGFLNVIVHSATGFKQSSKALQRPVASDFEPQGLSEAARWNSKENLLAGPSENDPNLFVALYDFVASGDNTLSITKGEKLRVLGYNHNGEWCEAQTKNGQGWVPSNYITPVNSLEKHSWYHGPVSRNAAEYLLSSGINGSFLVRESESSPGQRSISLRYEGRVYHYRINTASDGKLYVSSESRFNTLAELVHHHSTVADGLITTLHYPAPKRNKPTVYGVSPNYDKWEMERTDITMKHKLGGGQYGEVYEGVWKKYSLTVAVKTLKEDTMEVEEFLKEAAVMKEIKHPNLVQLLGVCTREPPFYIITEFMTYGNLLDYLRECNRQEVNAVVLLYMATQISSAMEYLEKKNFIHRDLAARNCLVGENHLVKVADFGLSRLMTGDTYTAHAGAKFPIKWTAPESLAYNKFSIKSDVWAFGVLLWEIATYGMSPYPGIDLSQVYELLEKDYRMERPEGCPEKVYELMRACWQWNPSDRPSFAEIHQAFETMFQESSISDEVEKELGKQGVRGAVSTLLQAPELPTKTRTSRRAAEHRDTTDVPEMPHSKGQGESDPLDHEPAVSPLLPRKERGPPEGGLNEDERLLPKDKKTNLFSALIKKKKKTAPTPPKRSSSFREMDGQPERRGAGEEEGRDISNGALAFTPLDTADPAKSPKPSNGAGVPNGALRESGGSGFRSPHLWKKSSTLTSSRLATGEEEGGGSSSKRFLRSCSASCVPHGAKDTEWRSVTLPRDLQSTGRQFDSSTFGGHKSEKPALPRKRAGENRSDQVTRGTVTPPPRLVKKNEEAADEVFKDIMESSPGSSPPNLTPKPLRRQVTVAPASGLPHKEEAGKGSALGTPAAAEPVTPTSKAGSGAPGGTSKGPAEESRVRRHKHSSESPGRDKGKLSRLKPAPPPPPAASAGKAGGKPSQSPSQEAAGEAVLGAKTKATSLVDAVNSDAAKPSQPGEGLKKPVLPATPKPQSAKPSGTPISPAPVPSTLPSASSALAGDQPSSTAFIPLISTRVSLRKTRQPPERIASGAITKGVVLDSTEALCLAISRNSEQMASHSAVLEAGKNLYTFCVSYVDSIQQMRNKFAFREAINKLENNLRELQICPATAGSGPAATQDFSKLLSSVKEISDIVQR

SMILES	DC50 [1]	IC50 [2]	DC50 [3]	DC50 [4]	DC50 (nM)/ SR cell line [3]	IC50 [5]
Cc1nc(Nc2ncc(C(=O)Nc3c(C)cccc3Cl)s2)cc(N2CCN(C(=O)CCCCCCSc3cccc4c3C(=O)N(C3CCC(=O)NC3=O)C4=O)CC2)n1 (stereo not shown) [SIAIS151156, N-(2-chloro-6-methylphenyl)-2-((6-(4-(7-((2-(2,6-dioxopiperidin-3-yl)-1,3-dioxoisoindolin-4-yl)thio)heptanoyl)piperazin-1-yl)-2-methylpyrimidin-4-yl)amino)thiazole-5-carboxamide]	2.9 nM	6.63 nM	–	–	–	–
Cc1nc(Nc2ncc(C(=O)Nc3c(C)cccc3Cl)s2)cc(N2CCN(C(=O)CCCCSc3cccc4c3C(=O)N(C3CCC(=O)NC3=O)C4=O)CC2)n1 (stereo not shown) [SIAIS151154, N-(2-chloro-6-methylphenyl)-2-((6-(4-(5-((2-(2,6-dioxopiperidin-3-yl)-1,3-dioxoisoindolin-4-yl)thio)pentanoyl)piperazin-1-yl)-2-methylpyrimidin-4-yl)amino)thiazole-5-carboxamide]	2 nM	5.74 nM	–	–	–	–
COc1cc(N2CCC(NC(=O)CCCCCSc3cccc4c3C(=O)N(C3CCC(=O)NC3=O)C4=O)CC2)ccc1Nc1ncc(Cl)c(Nc2ccccc2P(C)(C)=O)n1 (stereo not shown) [SIAIS164141, N-(1-(4-((5-chloro-4-((2-(dimethylphosphoryl)phenyl)amino)pyrimidin-2-yl)amino)-3-methoxyphenyl)piperidin-4-yl)-6-((2-(2,6-dioxopiperidin-3-yl)-1,3-dioxoisoindolin-4-yl)thio)hexanamide]	–	–	1 to 50 nM	50 nM	–	3.2 ± 2.4 nM
COc1cc(N2CCC(N3CCN(C(=O)CCCCSc4cccc5c4C(=O)N(C4CCC(=O)NC4=O)C5=O)CC3)CC2)ccc1Nc1ncc(Cl)c(Nc2ccccc2P(C)(C)=O)n1 (stereo not shown) [SIAIS164066, 4-((5-(4-(1-(4-((5-chloro-4-((2-(dimethylphosphoryl)phenyl)amino)pyrimidin-2-yl)amino)-3-methoxyphenyl)piperidin-4-yl)piperazin-1-yl)-5-oxopentyl)thio)-2-(2,6-dioxopiperidin-3-yl)isoindoline-1,3-dione]	–	–	5.6 nM	11 nM	–	4.2 ± 2.9 nM
COc1cc(N2CCC(N3CCN(C(=O)CCCSc4cccc5c4CN(C4CCC(=O)NC4=O)C5=O)CC3)CC2)ccc1Nc1ncc(Cl)c(Nc2ccccc2P(C)(C)=O)n1 (stereo not shown) [SIAIS219069, 3-(4-((4-(4-(1-(4-((5-chloro-4-((2-(dimethylphosphoryl)phenyl)amino)pyrimidin-2-yl)amino)-3-methoxyphenyl)piperidin-4-yl)piperazin-1-yl)-4-oxobutyl)thio)-1-oxoisoindolin-2-yl)piperidine-2,6-dione]	–	–	0.1 to 10 nM	–	–	0.7 ± 0.3 nM
COc1cc(N2CCC(N3CCN(C(=O)CCCCCSc4cccc5c4CN(C4CCC(=O)NC4=O)C5=O)CC3)CC2)ccc1Nc1ncc(Cl)c(Nc2ccccc2P(C)(C)=O)n1 (stereo not shown) [SIAIS219071, 3-(4-((6-(4-(1-(4-((5-chloro-4-((2-(dimethylphosphoryl)phenyl)amino)pyrimidin-2-yl)amino)-3-methoxyphenyl)piperidin-4-yl)piperazin-1-yl)-6-oxohexyl)thio)-1-oxoisoindolin-2-yl)piperidine-2,6-dione]	–	–	–	–	0.01~10 nM	0.6 ± 0.4 nM
Cc1nc(Nc2ncc(C(=O)Nc3c(C)cccc3Cl)s2)cc(N2CCN(CCCSc3cccc4c3C(=O)N(C3CCC(=O)NC3=O)C4=O)CC2)n1 (stereo not shown) [SIAIS172106, N-(2-chloro-6-methylphenyl)-2-((6-(4-(3-((2-(2,6-dioxopiperidin-3-yl)-1,3-dioxoisoindolin-4-yl)thio)propyl)piperazin-1-yl)-2-methylpyrimidin-4-yl)amino)thiazole-5-carboxamide]	< 3 nM	0.83 nM	–	–	–	–
Cc1nc(Nc2ncc(C(=O)Nc3c(C)cccc3Cl)s2)cc(N2CCN(C(=O)CCCSc3cccc4c3C(=O)N(C3CCC(=O)NC3=O)C4=O)CC2)n1 (stereo not shown) [SIAIS151153, N-(2-chloro-6-methylphenyl)-2-((6-(4-(4-((2-(2,6-dioxopiperidin-3-yl)-1,3-dioxoisoindolin-4-yl)thio)butanoyl)piperazin-1-yl)-2-methylpyrimidin-4-yl)amino)thiazole-5-carboxamide]	20.7 nM	15 nM	–	–	–	–

Now from value to molecule, other results behind:

DC50 [1]	IC50 [2]	DC50 [3]	DC50 [4]	DC50 (nM)/ SR cell line [3]	SMILES	IC50 [5]
< 1 nM	0.51 nM	–	–	–	Cc1nc(Nc2ncc(C(=O)Nc3c(C)cccc3Cl)s2)cc(N2CCN(CCSc3cccc4c3CN(C3CCC(=O)NC3=O)C4=O)CC2)n1 (stereo not shown) [SIAIS171166, N-(2-chloro-6-methylphenyl)-2-((6-(4-(2-((2-(2,6-dioxopiperidin-3-yl)-1-oxoisoindolin-4-yl)thio)ethyl)piperazin-1-yl)-2-methylpyrimidin-4-yl)amino)thiazole-5-carboxamide]	–
–	–	4.1 nM	11 nM	–	COc1cc(N2CCC(N3CCN(C(=O)CCCCCCSc4cccc5c4C(=O)N(C4CCC(=O)NC4=O)C5=O)CC3)CC2)ccc1Nc1ncc(Cl)c(Nc2ccccc2P(C)(C)=O)n1 (stereo not shown) [SIAIS164067, 4-((7-(4-(1-(4-((5-chloro-4-((2-(dimethylphosphoryl)phenyl)amino)pyrimidin-2-yl)amino)-3-methoxyphenyl)piperidin-4-yl)piperazin-1-yl)-7-oxoheptyl)thio)-2-(2,6-dioxopiperidin-3-yl)isoindoline-1,3-dione]	5.7 ± 3.9 nM
0.8 nM	8.66 nM	–	–	–	Cc1nc(Nc2ncc(C(=O)Nc3c(C)cccc3Cl)s2)cc(N2CCN(C(=O)CCCCCSc3cccc4c3C(=O)N(C3CCC(=O)NC3=O)C4=O)CC2)n1 (stereo not shown) [SIAIS151155, N-(2-chloro-6-methylphenyl)-2-((6-(4-(6-((2-(2,6-dioxopiperidin-3-yl)-1,3-dioxoisoindolin-4-yl)thio)hexanoyl)piperazin-1-yl)-2-methylpyrimidin-4-yl)amino)thiazole-5-carboxamide]	–
–	–	0.1 to 10 nM	–	–	COc1cc(N2CCC(N3CCN(C(=O)CSc4cccc5c4CN(C4CCC(=O)NC4=O)C5=O)CC3)CC2)ccc1Nc1ncc(Cl)c(Nc2ccccc2P(C)(C)=O)n1 (stereo not shown) [SIAIS219067, 3-(4-((2-(4-(1-(4-((5-chloro-4-((2-(dimethylphosphoryl)phenyl)amino)pyrimidin-2-yl)amino)-3-methoxyphenyl)piperidin-4-yl)piperazin-1-yl)-2-oxoethyl)thio)-1-oxoisoindolin-2-yl)piperidine-2,6-dione]	2.4 ± 1.4 nM
–	–	0.1 to 10 nM	–	–	COc1cc(N2CCC(N3CCN(C(=O)CCCCCCSc4cccc5c4CN(C4CCC(=O)NC4=O)C5=O)CC3)CC2)ccc1Nc1ncc(Cl)c(Nc2ccccc2P(C)(C)=O)n1 (stereo not shown) [SIAIS219072, 3-(4-((7-(4-(1-(4-((5-chloro-4-((2-(dimethylphosphoryl)phenyl)amino)pyrimidin-2-yl)amino)-3-methoxyphenyl)piperidin-4-yl)piperazin-1-yl)-7-oxoheptyl)thio)-1-oxoisoindolin-2-yl)piperidine-2,6-dione]	0.8 ± 0.5 nM
< 1 nM	11.1 nM	–	–	–	Cc1nc(Nc2ncc(C(=O)Nc3c(C)cccc3Cl)s2)cc(N2CCN(C(=O)CCSc3cccc4c3C(=O)N(C3CCC(=O)NC3=O)C4=O)CC2)n1 (stereo not shown) [SIAIS151152, N-(2-chloro-6-methylphenyl)-2-((6-(4-(3-((2-(2,6-dioxopiperidin-3-yl)-1,3-dioxoisoindolin-4-yl)thio)propanoyl)piperazin-1-yl)-2-methylpyrimidin-4-yl)amino)thiazole-5-carboxamide]	–
–	–	1 to 10 nM	–	–	COc1cc(N2CCC(N3CCN(C(=O)CCSc4cccc5c4CN(C4CCC(=O)NC4=O)C5=O)CC3)CC2)ccc1Nc1ncc(Cl)c(Nc2ccccc2P(C)(C)=O)n1 (stereo not shown) [SIAIS219068, 3-(4-((3-(4-(1-(4-((5-chloro-4-((2-(dimethylphosphoryl)phenyl)amino)pyrimidin-2-yl)amino)-3-methoxyphenyl)piperidin-4-yl)piperazin-1-yl)-3-oxopropyl)thio)-1-oxoisoindolin-2-yl)piperidine-2,6-dione]	1.7 ± 0.8 nM
–	–	0.1 to 10 nM	–	–	COc1cc(N2CCC(N3CCN(C(=O)CCCCSc4cccc5c4CN(C4CCC(=O)NC4=O)C5=O)CC3)CC2)ccc1Nc1ncc(Cl)c(Nc2ccccc2P(C)(C)=O)n1 (stereo not shown) [SIAIS219070, 3-(4-((5-(4-(1-(4-((5-chloro-4-((2-(dimethylphosphoryl)phenyl)amino)pyrimidin-2-yl)amino)-3-methoxyphenyl)piperidin-4-yl)piperazin-1-yl)-5-oxopentyl)thio)-1-oxoisoindolin-2-yl)piperidine-2,6-dione]	0.5 ± 0.3 nM
–	–	0.1 to 1 nM	–	–	COc1cc(N2CCC(N3CCN(CCCCCCSc4cccc5c4CN(C4CCC(=O)NC4=O)C5=O)CC3)CC2)ccc1Nc1ncc(Cl)c(Nc2ccccc2P(C)(C)=O)n1 (stereo not shown) [SIAIS219098, 3-(4-((6-(4-(1-(4-((5-chloro-4-((2-(dimethylphosphoryl)phenyl)amino)pyrimidin-2-yl)amino)-3-methoxyphenyl)piperidin-4-yl)piperazin-1-yl)hexyl)thio)-1-oxoisoindolin-2-yl)piperidine-2,6-dione]	0.7 ± 0.2 nM
